# Data published in publication PMC11999303 (iScience, 2025).
# Entries after “also recorded” stand apart in the source; their conditions may differ.
# Biological target: I-A^b (Mus musculus, UniProt P14434+P14483)
# Assay: MHC2-SCALE peptide exchange with 2D-LCMS detection on I-A^b
# Assay type: binding
# Details: single peptide, lowmCLIP-I-A^b, standard exchange pH 5, 2D-LCMS
# I-A^b, sequence (P14434 whole entry, looked up): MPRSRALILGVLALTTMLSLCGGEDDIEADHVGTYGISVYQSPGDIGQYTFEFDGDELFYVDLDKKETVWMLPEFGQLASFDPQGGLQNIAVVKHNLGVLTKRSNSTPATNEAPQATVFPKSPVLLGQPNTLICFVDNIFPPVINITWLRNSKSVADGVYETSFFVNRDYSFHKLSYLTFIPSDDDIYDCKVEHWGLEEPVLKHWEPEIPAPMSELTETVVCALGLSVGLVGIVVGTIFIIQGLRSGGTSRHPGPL
# I-A^b, sequence (P14483 whole entry, looked up): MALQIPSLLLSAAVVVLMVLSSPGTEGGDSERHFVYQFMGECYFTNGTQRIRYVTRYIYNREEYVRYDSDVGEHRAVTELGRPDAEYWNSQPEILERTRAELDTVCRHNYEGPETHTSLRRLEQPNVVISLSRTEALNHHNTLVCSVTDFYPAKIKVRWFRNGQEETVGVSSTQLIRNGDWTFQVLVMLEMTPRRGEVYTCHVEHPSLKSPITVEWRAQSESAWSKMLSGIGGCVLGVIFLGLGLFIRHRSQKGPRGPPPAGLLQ
row,"peptide exchange / binding to I-A^b by MHC2-SCALE, in words",Sequence
1,complete peptide exchange,LQPFQLAFGHLVNRQV [M46-B]
2,bound; also recorded: strong binder,HYKYMCNSSCMGVMN [M112-A]
3,complete peptide exchange,LPLQPFQLAFGHLVN [M46-A]
4,binders,VIMSAHSLTNSSSDF [M57-B]
5,binders,DRGVIMSAHSLTNSS [M57-A]
